As a reminder, the EC50 is the concentration at which the effect is half-maximal. Broadly, the Kd is the constant that tells how readily two partners part at equilibrium.

Where two headings read alike, the source gives them in different places.

One experiment deals with T1, α1β3 GABAAR WT (Homo sapiens, UniProt P14867+P28472).
T1 construct: inserted between the fourth and fifth residues of the mature peptide; photolabeling full-length heteropentameric GABAARs in native membranes; expressed in transfected cells
T1 sequence (P14867 28-456): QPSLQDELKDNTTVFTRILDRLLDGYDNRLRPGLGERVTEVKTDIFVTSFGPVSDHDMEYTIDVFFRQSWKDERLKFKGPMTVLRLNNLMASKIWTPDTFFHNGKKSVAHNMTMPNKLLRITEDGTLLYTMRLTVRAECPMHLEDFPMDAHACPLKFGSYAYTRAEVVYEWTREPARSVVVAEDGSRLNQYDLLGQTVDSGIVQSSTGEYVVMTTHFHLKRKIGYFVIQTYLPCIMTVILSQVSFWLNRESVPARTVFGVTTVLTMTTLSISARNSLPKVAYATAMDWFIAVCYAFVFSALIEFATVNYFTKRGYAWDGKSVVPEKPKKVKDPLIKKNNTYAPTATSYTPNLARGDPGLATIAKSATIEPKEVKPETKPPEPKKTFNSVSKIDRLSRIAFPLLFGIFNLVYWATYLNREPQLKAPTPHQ
T1 sequence (P28472 26-473): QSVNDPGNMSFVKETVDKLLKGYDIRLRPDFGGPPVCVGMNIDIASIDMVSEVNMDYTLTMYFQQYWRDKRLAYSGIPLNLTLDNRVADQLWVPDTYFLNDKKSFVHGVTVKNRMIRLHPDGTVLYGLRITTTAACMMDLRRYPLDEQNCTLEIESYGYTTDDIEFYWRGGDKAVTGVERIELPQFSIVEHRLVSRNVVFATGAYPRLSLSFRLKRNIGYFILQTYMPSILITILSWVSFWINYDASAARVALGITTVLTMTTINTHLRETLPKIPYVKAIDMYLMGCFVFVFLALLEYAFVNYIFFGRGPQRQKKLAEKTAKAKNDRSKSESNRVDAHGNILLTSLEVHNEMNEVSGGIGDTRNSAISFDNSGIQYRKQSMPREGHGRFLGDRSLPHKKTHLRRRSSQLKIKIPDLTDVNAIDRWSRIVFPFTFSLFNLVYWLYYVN
As to the kind of experiment: [3H]muscimol binding to HEK cell membranes (neurosteroid modulation and isotherms), WT receptor. Particulars: for Emax (% of control) of [3H]muscimol binding: 100% means no effect; for Bmax of [3H]muscimol binding isotherm in the presence of the modulator: etomidate 100 μM, 3α5αP 30 μM, KK148 30 μM, control 9.8 ± 0.8. As for the experimental part: Stably transfected cells were plated into dishes. After reaching 50% confluence, GABAA receptors were expressed by inducing cells with 1 μg/ml of doxycycline with the addition of 5 mM sodium butyrate. Cells were harvested 48 to 72 hr after induction. HEK cells, after induction, were grown to 100% confluence, harvested and washed with 10 mM potassium phosphate, 100 mM potassium chloride (pH 7.5) plus protease inhibitors (Sigma-Aldrich, St. Louis, MO) two times. The cells were collected by centrifugation at 1,000 g at 4°C for 5 min. The cells were homogenized with a glass mortar and a Teflon pestle for ten strokes on ice. The pellet containing the membrane proteins was collected after centrifugation at 20,000 g at 4°C for 45 min and resuspended in a buffer containing 10 mM potassium phosphate, 100 mM potassium chloride (pH 7.5). The protein concentration was determined with micro-BCA protein assay and membranes were stored at −80°C.
(§1) [^3H]muscimol-binding assays were performed using a previously described method ([Chen et al., 2019]). […] Assay tubes were incubated for 1 hr on ice in the dark. […] Membranes were collected on Whatman/GF-C glass filter papers using a Brandel cell harvester (Gaithersburg, MD). To perform [^3H]muscimol binding isotherms, 100 μg/ml aliquots of membrane protein were incubated with 0.3 nM–1 μM [^3H]muscimol for 1 hr on ice in the dark. The specific activity for [^3H]muscimol concentrations from 30 nM to 1 μM was reduced to 2 Ci/mmol by dilution with nonradioactive muscimol. The membranes were collected on Whatman/GF-B glass filter papers using a vacuum manifold. […] For [^3H]muscimol-binding experiments examining competitive interactions between neurosteroids, the combined neurosteroids (0.3 μM 3α5αP or 3 μM KK148 ±30 μM KK150) or the same volume of dimethyl sulfoxide (DMSO) were added to the membranes which were then incubated with 3 nM [^3H]muscimol on ice for 1 hr. Time courses of neurosteroid [^3H]muscimol binding enhancement were examined by adding 10 µM of neurosteroids (3α5αP, 3β5αP) to membranes that had been fully equilibrated with 3 nM [^3H]muscimol for 1 hr on ice; binding was then measured as a function of time at 1, 3, 10, 30, 60 min. The membranes were collected on Whatman/GF-B glass filter papers using a vacuum manifold. Radioactivity bound to the filters was measured by liquid scintillation spectrometry using Bio-Safe II (Research Products International, Mount Prospect, IL).

For the next experiment, the target named is T2, α1β3(Y284F) GABAAR (UniProt P28472+P62813, Y309F).
T2 construct: expressed in transfected cells; host or cells: HEK293S GnTI- (ATCC CRL-3022), transient
As to the kind of experiment: [3H]muscimol binding to HEK cell membranes, β3 intrasubunit site mutant. The following applies: for Emax (% of control) of [3H]muscimol binding: 100% means no effect. Also on record: species or system rat α1, human β3. As for the experimental part: The human α1 and β3 GABAAR subunits were subcloned into pcDNA3 for molecular manipulations and cRNA synthesis. Using QuikChange Site-Directed Mutagenesis Kit (Agilent Technologies, Santa Clara, CA), a FLAG tag was first added to the α1 subunit then an 8xHis tag was added to generate the following His-FLAG tag tandem ([…]), inserted between the fourth and fifth residues of the mature peptide. The α1 and β3 subunits were then transferred into the pcDNA4/TO and pcDNA5/TO vectors (Thermo Fisher Scientific), respectively, for tetracycline inducible expression. Transient expression was done using the GABAAR subunits rat α1FLAG ([Ueno et al., 1996]) and human β3 obtained from Geoffrey White (Neurogen, Branford, CT), each were subcloned into pcDNA3 for molecular manipulations and cRNA synthesis. Point mutations were generated using the QuikChange Site-Directed Mutagenesis Kit (Agilent) and the coding region was fully sequenced prior to use. The cDNAs were linearized with XbaI (NEB Labs, Ipswich, MA), and the cRNAs were generated using T7 mMessage mMachine (Ambion, Austin, TX).
as §1

Setting [1] is: WT α1β3, 3 nM [3H]muscimol, 1 hr on ice, read-out: EC50 for modulation of [3H]muscimol binding.

On to `CC(=O)[C@H]1CC[C@H]2[C@@H]3CC[C@H]4C[C@H](O)CC[C@]4(C)[C@H]3CC[C@]12C` [3α5αP, allopregnanolone], for which the EC50 came to 240 ± 40 nM at α1β3 GABAAR WT and 190 ± 40 nM on α1β3(Y284F) GABAAR. Also, the “Hill slope for modulation of [3H]muscimol binding” value (“Hill slope for modulation” below) worked out at 1.10 ± 0.14 at α1β3 GABAAR WT (WT α1β3, 3 nM [3H]muscimol) and 0.87 ± 0.16 on α1β3(Y284F) GABAAR (α1β3(Y284F), 3 nM [3H]muscimol). The “Emax (% of control) of [3H]muscimol binding” value at α1β3 GABAAR WT (WT α1β3, 3 nM [3H]muscimol) is given as 374.1 ± 11.1 % of control; on α1β3(Y284F) GABAAR (α1β3(Y284F), 3 nM [3H]muscimol), 342.3 ± 13.9 % of control. Besides, the “Bmax of [3H]muscimol binding isotherm in the presence of the modulator” value on α1β3 GABAAR WT (WT α1β3) turned out to be 10.3 ± 0.7 pmol/mg.

The molecule `CC(=O)[C@H]1CC[C@H]2[C@@H]3CC[C@H]4C[C@@H](O)CC[C@]4(C)[C@H]3CC[C@]12C` [3β5αP, epi-allopregnanolone] registered an EC50 on α1β3 GABAAR WT of 260 ± 70 nM. At α1β3 GABAAR WT (10 µM neurosteroid added to membranes equilibrated with 3 nM [3H]muscimol, 4°C), the “Time constant (τ) of enhancement of [3H]muscimol binding” value is given as 3.97 ± 0.15 min. Further, on α1β3 GABAAR WT (WT α1β3, 3 nM [3H]muscimol), the “Hill slope for modulation” value came out at 0.89 ± 0.26 and the “Emax (% of control) of [3H]muscimol binding” value is 195.6 ± 5.7 % of control. Further, the “Emax (% of control) of [3H]muscimol binding” value on α1β3(Y284F) GABAAR (α1β3(Y284F), 3 nM [3H]muscimol) was “**148.6 ± 4.9 % of control”.

`C#CCCO[C@H]1CC[C@H]2[C@@H]3CC[C@H]4CC5(CC[C@]4(C)[C@H]3CC[C@]12C)N=N5` [KK148]: the “Hill slope for modulation” value is 1.36 ± 0.16 at α1β3 GABAAR WT (WT α1β3, 3 nM [3H]muscimol) and 1.35 ± 0.13 on α1β3(Y284F) GABAAR (α1β3(Y284F), 3 nM [3H]muscimol). The “Emax (% of control) of [3H]muscimol binding” value on α1β3 GABAAR WT (WT α1β3, 3 nM [3H]muscimol) was 431.0 ± 19.5 % of control; at α1β3(Y284F) GABAAR (α1β3(Y284F), 3 nM [3H]muscimol) it was “**357.2 ± 8.1 % of control”. Further, the EC50 on α1β3 GABAAR WT (setting [1]) turned out to be 2400 ± 360 nM; at α1β3(Y284F) GABAAR (α1β3(Y284F), 3 nM [3H]muscimol, read-out: EC50 for modulation of [3H]muscimol binding), 1790 ± 440 nM. In addition, the “Bmax of [3H]muscimol binding isotherm in the presence of the modulator” value at α1β3 GABAAR WT (WT α1β3) is 10.8 ± 0.9 pmol/mg.

Take `C#CCCO[C@@H]1CC[C@H]2[C@@H]3CC[C@H]4CC5(CC[C@]4(C)[C@H]3CC[C@]12C)N=N5` [KK150]: on α1β3 GABAAR WT (30 μM KK150 with 0.3 μM 3α5αP or 3 μM KK148, 3 nM [3H]muscimol), the “Effect on enhancement of [3H]muscimol binding by 3α5αP and KK148” value was “inhibited”. At α1β3 GABAAR WT (WT α1β3, 3 nM [3H]muscimol), the “Hill slope for modulation” value was 1.12 ± 0.42 and the “Emax (% of control) of [3H]muscimol binding” value is listed as 142.5 ± 3.9 % of control. Moreover, the EC50 on α1β3 GABAAR WT (setting [1]) came out at 2760 ± 2320 nM.

`NCc1cc(=O)[nH]o1` [muscimol]: the “Bmax of [3H]muscimol binding isotherm” value at α1β3 GABAAR WT (WT α1β3) is given as 12.1 ± 1.4 pmol/mg; at α1β3(Y284F) GABAAR (α1β3(Y284F)), 10.6 ± 0.9 (P > 0.99 vs. WT) pmol/mg. The Kd at α1β3 GABAAR WT (WT α1β3, 0.3 nM–1 μM [3H]muscimol, read-out: Kd of [3H]muscimol binding isotherm) came out at 48.1 ± 4 nM; at α1β3(Y284F) GABAAR (α1β3(Y284F), read-out: Kd of [3H]muscimol binding isotherm), 46.6 ± 3.8 nM.
